Results reported in patent US6737383B1, “Herbicidal oxadiazolidines” (priority 1999, dated 2004).

Tests used:
blackgrass = test: Test B pre/postemergence blackgrass; format: in vivo, Alopecurus myosuroides
Procedure, shortened: (§1)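 Test chemicals in a non-phytotoxic solvent mixture with surfactant were sprayed preemergence onto planted seeds and postemergence onto plants 2 to 18 cm tall (1- to 4-leaf stage). After twelve to sixteen days in a greenhouse, injury was visually rated against untreated controls from 0 (no effect) to 10 (complete control).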

wild oat = test: Test B pre/postemergence wild oat; format: in vivo, Avena fatua; settings: for Wild oats plant response rating (0 to 10 scale): 0 is no effect; for Plant response rating, Wild oats: Rate 250 g/ha
Procedure, shortened: as §1

rice = test: Test B flood test rice; format: in vivo, Oryza sativa
Procedure, shortened: (§2)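 Flood test on plants grown to the 2-leaf stage; treated plants kept in greenhouse twelve to sixteen days, then visually rated against controls on a 0 (no effect) to 10 (complete control) scale.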

smallflower flatsedge = test: Test B flood test smallflower flatsedge; format: in vivo, Cyperus difformis
Procedure, shortened: as §2

bamyardgrass = test: Test B flood test barnyardgrass; format: in vivo, Echinochloa crus-galli
Procedure, shortened: as §2

[1] = Postemergence, Rate 62 g/ha, scale 0 to 10, 0 is no effect, 10 is complete control
[2] = Postemergence, Rate 125 g/ha, scale of 0 to 10 where 0 is no effect and 10 is complete control
[3] = Postemergence, Rate 250 g/ha, scale 0 to 10, 0 no effect, 10 complete control
[4] = Preemergence, Rate 62 g/ha, scale 0 to 10 (0 no effect, 10 complete control)
[5] = Preemergence, Rate 125 g/ha, scale 0 to 10 (0 no effect, 10 complete control)
[6] = Preemergence, Rate 250 g/ha, scale of 0 to 10 where 0 is no effect and 10 is complete control
[7] = Preemergence, Rate 500 g/ha, scale 0 (no effect) to 10 (complete control)
[8] = Rate 500 g/ha, Postemergence, scale 0 to 10, 0 no effect, 10 complete control
[9] = Preemergence, Rate 125 g/ha, 10 is complete control
[10] = Preemergence, scale of 0 to 10 where 0 is no effect and 10 is complete control
[11] = Postemergence, scale 0 to 10, 0 is no effect, 10 is complete control
[12] = Postemergence (flood test species), Rate 125 g/ha, scale of 0 to 10 where 0 is no effect and 10 is complete control
[13] = Rate 250 g/ha, Postemergence (flood test), scale 0 to 10, 0 is no effect, 10 is complete control
[14] = Rate 500 g/ha, listed under Postemergence (flood test species), scale 0 to 10, 0 no effect, 10 complete control
[15] = flood test, listed under Postemergence, Rate 250 g/ha, scale 0 to 10, 0 no effect, 10 complete control
[16] = Preemergence, Rate 500 g/ha, scale 0 to 10 (0 no effect, 10 complete control)
[17] = Rate 62 g/ha, Postemergence, scale of 0 to 10 where 0 is no effect and 10 is complete control
[18] = Rate 62 g/ha, Postemergence section, flood test species, scale of 0 to 10 where 0 is no effect and 10 is complete control
[19] = Rate 250 g/ha, headed Pre-emergence (flood test species), scale 0 to 10 (0 no effect, 10 complete control)
[20] = Rate 500 g/ha, headed Pre-emergence (flood test species), scale 0 to 10 (0 no effect, 10 complete control)
[21] = Rate 1000 g/ha, Pre-emergence (as headed), scale 0 to 10
[22] = Rate 2000 g/ha, Pre-emergence (as headed), scale 0 to 10

SMILES | Blackgrass plant response rating (blackgrass; [2]) | Blackgrass plant response rating (blackgrass; [3]) | Blackgrass plant response rating (blackgrass; [4]) | Plant response rating, Blackgrass (blackgrass; [5]) | Plant response rating, Blackgrass (blackgrass; [6]) | Blackgrass plant response rating (blackgrass; [8]) | Wild oats plant response rating (wild oat; [2]) | Wild oats plant response rating (wild oat; [4]) | Wild oats plant response rating (0 to 10 scale) (wild oat; [9]) | Plant response rating, Wild oats (wild oat; [10]) | Plant response rating, Wild oats (wild oat; [11]) | Wild oats plant response rating (wild oat; [8]) | Rice plant response rating (rice; [12]) | Plant response rating, Rice (rice; [13]) | Rice plant response rating (rice; [14]) | S. Flatsedge plant response rating (smallflower flatsedge; [12]) | Plant response rating, S. Flatsedge (smallflower flatsedge; [13]) | S. Flatsedge plant response rating (smallflower flatsedge; [14]) | Barnyardgrass plant response rating (bamyardgrass; [1]) | Barnyardgrass plant response rating (bamyardgrass; [14]) | also measured
Cc1nn(C)c(Cl)c1-n1c(=O)on(C(=O)N(c2ccc(F)cc2F)C(C)C)c1=O [Compound 96] | 0 | 0 | 0 | 3 | 3 | 0 | 0 | 0 | 0 | 2 | 0 | 0 | 0 | 0 | 2 | 0 | 0 | 3 | 0 | 0 | Blackgrass plant response rating (blackgrass; [1]): 0; Blackgrass plant response rating (blackgrass; [7]): 8; Wild oats plant response rating (wild oat; [1]): 0; Wild oats plant response rating (wild oat; [7]): 7; Rice plant response rating (rice; [1]): 0; S. Flatsedge plant response rating (smallflower flatsedge; [1]): 0; Barnyardgrass plant response rating (bamyardgrass; Rate 125 g/ha, Postemergence section (flood test species), scale 0 to 10, 0 no effect, 10 complete control): 0; Barnyardgrass plant response rating (bamyardgrass; [15]): 0
Cc1nn(C)c(Cl)c1-n1c(=O)on(C(=O)N(c2ccccc2)C(C)C)c1=O [Compound 121] | 0 | 2 | 0 | 4 | 7 | 6 | 0 | 0 | 0 | 5 | 0 | 0 | 0 | 0 | 0 | 5 | 5 | 6 | 0 | 6 | Blackgrass plant response rating (blackgrass; [16]): 9; Blackgrass plant response rating (blackgrass; [17]): 0; Wild oats plant response rating (wild oat; [16]): 6; Wild oats plant response rating (wild oat; [17]): 0; Rice plant response rating (rice; [18]): 0; Rice plant response rating (rice; [19]): 0; Plant response rating, Rice (rice; [20]): 0; Rice plant response rating (rice; [21]): 3; Rice plant response rating (rice; [22]): 5; S. Flatsedge plant response rating (smallflower flatsedge; Pre-emergence, Rate 1000 g/ha, scale 0 to 10 (0 no effect, 10 complete control)): 9; S. Flatsedge plant response rating (smallflower flatsedge; [18]): 3; S. Flatsedge plant response rating (smallflower flatsedge; [19]): 0; Plant response rating, S. Flatsedge (smallflower flatsedge; [20]): 3; S. Flatsedge plant response rating (smallflower flatsedge; [22]): 9; Barnyardgrass plant response rating (bamyardgrass; [12]): 0; Barnyardgrass plant response rating (bamyardgrass; [19]): 0; Plant response rating, Barnyardgrass (bamyardgrass; [20]): 8; Barnyardgrass plant response rating (bamyardgrass; [21]): 9; Barnyardgrass plant response rating (bamyardgrass; Rate 2000 g/ha, Pre-emergence (as headed), scale 0 to 10, 0 no effect, 10 complete control): 9; Barnyardgrass plant response rating (bamyardgrass; [15]): 0
